Experiments:
telomerase = telomerase (Homo sapiens, UniProt O14746); test: Modified telomeric repeat amplification protocol (TRAP) assay, cell-free; format: biochemical; settings: extracts from A2780 cells, tested as salts, read-out: telIC50 (Telomerase Inhibitory Activity)
Experimental: The ability of compounds to inhibit telomerase in a cell-free assay was assessed with a modified TRAP assay using extracts from exponentially growing A2780 human ovarian carcinoma cells. The TRAP assay was performed in 2 steps: (a) telomerase-mediated extension of the forward primer (TS: 5′-AATCCGTCGAGCAGAGTT (SEQ ID NO:3), Oswel Ltd., Southampton, UK) contained in a 40 µL reaction mix comprising TRAP buffer (20 mM Tris-HCl (pH 8.3), 68 mM KCl, 1.5 mM MgCl2, 1 mM EGTA, 0.05% v/v Tween 20), 0.05 μg bovine serum albumin, 50 μM of each deoxynucleotide triphosphate, 0.1 μg TS primer, and 3 μCi of [α-^32P]dCTP (Amersham plc, UK). Protein (40 ng or 20 ng) was then incubated with the reaction mix+agent (acid addition and quaternary dimethiodide salts) at final concentrations of up to 50 μM for 20 min at 25° C. A lysis buffer (no protein) control, heat-inactivated protein control, and 50% protein (20 ng or 10 ng) control were included in each assay; and (b) while heating at 80° C. in a PCR block of a thermal cycler (Hybaid, UK) for 5 min to inactivate telomerase activity, 0.1 μg of reverse CX primer (3′-[…]-5′ (SEQ ID NO:4)) and 2 Units of Taq DNA polymerase (“red hot”, Advanced Biotechnologies) were added. A 3-step PCR was then performed: 94° C. for 30 s, 50° C. for 30 s, and 72° C. for 1 min for 31 cycles. Telomerase-extended PCR products in the presence or absence of compounds were then determined either by electrophoretic separation using 8% w/w acrylamide denaturing gels and analysis by phosphorimaging or autoradiography, or by harvesting on Whatman filters (25 mm glass microfibre) and analysis by liquid scintillation counting.

[1] = Growth inhibition, sulforhodamine B (SRB) assay, A2780; format: cell-based; settings: human, A2780 ovarian carcinoma cells, A2780, 96 hr incubation, tested as salts, read-out: Cytotoxicity - IC50 A2780
Experimental: (§1) Growth inhibition was measured in three human ovarian carcinoma cell lines (A2780, CH1, and SKOV-3) and one human cervix carcinoma cell line (A431) using the sulforhodamine B (SRB) assay. Briefly, between 3000 and 6000 cells were seeded into the wells of 96-well microtiter plates and allowed to attach overnight. Compounds (acid addition and quaternary dimethiodide salts) were dissolved at 500 μM in water and immediately added to wells in quadruplicate at final concentrations of 0.05, 0.25, 1, 5 and 25 μM. Following an incubation period of 96 hr, remaining cells were fixed with ice-cold 10% w/v trichloroacetic acid (30 min) and stained with 0.4% SRB in 1% v/v acetic acid (15 min). Mean absorbance at 540 nm for each drug concentration was expressed as a percentage of the control untreated well absorbance, and IC50 values (concentration required to inhibit cell growth by 50%) were determined for each agent.

[2] = Growth inhibition, sulforhodamine B (SRB) assay, CH1; format: cell-based; settings: human, CH1 ovarian carcinoma cells, CH1, 96 hr incubation, tested as salts, read-out: Cytotoxicity - IC50 CH1
Experimental: as §1

[3] = Growth inhibition, sulforhodamine B (SRB) assay, SKOV-3; format: cell-based; settings: human, SKOV-3 ovarian carcinoma cells, SKOV-3, 96 hr incubation, tested as salts, read-out: Cytotoxicity - IC50 SKOV-3
Experimental: as §1

human telomerase = settings: as described by Read et al., April 2001; cited from earlier work
[4] = Growth inhibition, sulforhodamine B (SRB) assay, A431; format: cell-based; settings: human, A431 cervix carcinoma cells, A431, 96 hr incubation, tested as salts, read-out: Cytotoxicity - IC50 A431
Experimental: as §1

telomerase, sequence (O14746 whole entry): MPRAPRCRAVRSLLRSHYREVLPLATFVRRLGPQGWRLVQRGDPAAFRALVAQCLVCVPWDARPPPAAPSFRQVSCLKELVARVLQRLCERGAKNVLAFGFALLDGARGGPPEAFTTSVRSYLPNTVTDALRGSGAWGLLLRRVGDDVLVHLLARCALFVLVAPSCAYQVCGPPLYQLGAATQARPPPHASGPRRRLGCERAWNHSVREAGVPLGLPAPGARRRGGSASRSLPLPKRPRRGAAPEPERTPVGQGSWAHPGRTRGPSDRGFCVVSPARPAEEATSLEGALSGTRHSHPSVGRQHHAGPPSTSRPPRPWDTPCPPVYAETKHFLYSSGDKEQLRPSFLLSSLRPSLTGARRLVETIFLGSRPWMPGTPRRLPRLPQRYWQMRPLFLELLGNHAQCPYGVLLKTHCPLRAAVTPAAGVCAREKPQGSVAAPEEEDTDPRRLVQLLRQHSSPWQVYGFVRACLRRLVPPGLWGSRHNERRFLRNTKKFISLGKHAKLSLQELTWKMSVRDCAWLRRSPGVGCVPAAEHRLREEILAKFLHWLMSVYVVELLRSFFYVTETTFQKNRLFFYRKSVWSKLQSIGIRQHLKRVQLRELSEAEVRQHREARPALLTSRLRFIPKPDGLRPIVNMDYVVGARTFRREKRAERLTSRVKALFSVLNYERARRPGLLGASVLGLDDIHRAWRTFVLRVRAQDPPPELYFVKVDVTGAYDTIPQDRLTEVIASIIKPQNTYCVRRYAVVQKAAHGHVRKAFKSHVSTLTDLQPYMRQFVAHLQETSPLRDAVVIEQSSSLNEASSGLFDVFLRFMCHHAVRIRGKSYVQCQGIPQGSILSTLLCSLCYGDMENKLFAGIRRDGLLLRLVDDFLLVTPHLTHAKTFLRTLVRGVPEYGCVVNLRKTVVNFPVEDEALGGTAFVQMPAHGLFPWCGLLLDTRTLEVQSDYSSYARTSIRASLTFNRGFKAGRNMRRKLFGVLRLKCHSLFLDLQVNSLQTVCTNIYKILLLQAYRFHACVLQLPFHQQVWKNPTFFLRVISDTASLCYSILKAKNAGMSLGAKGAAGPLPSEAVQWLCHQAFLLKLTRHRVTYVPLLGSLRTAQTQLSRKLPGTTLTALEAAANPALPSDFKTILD

Structure (SMILES) | IC50 (telomerase) [µM] | IC50 at 96 h [1] [µM] | IC50 at 96 h [2] [µM] | IC50 at 96 h [3] [µM] | in vitro inhibitory activity against human telomerase (human telomerase) | IC50 at 96 h [4] [µM]
O=C(CCN1CCC(O)CC1)Nc1ccc2nc3ccc(NC(=O)CCN4CCC(O)CC4)cc3c(O)c2c1 [JM-ACO-09, 2,7-Bis[3-(4-hydroxypiperidino)propionamido]-9(10H)-acridone] | 1.58 | > 25 | > 25 | > 25 | – | > 25
CN(C)CCC(=O)Nc1ccc2nc3ccc(NC(=O)CCN(C)C)cc3c(O)c2c1 [JH-ACO-22, 2,7-Bis(3-dimethylaminopropionamido)-9(10H)-acridone] | 1.92 | > 25 | > 25 | > 25 | – | > 25
O=C(CCN1CCCCC1CO)Nc1ccc2[nH]c3ccc(NC(=O)CCN4CCCCC4CO)cc3c(=O)c2c1 (stereo not drawn) [JM-ACO-12, 2,7-Bis[3-(2-hydroxymethylpiperidino)propionamido]-9(10H)-acridone] | 2.33 | > 25 | > 25 | > 25 | – | > 25
CN1CCN(CCC(=O)Nc2ccc3[nH]c4ccc(NC(=O)CCN5CCN(C)CC5)cc4c(=O)c3c2)CC1 [JH-ACO-28, 2,7-Bis[3-(4′-N-methyl)piperizinopropionamido]-9(10H)-acridone] | 0.66 | > 25 | > 25 | > 25 | – | > 25
CC1CCCCN1CCC(=O)Nc1ccc2nc3ccc(NC(=O)CCN4CCCCC4C)cc3c(O)c2c1 (stereo not drawn) [JM-ACO-07, 2,7-Bis[3-(2-methylpiperidino)propionamido]-9(10H)-acridone] | 1.97 | > 25 | > 25 | > 25 | – | > 25

The next compounds have a lower IC50 (telomerase) than those just listed; values first:

IC50 (telomerase) [µM] | Structure (SMILES) | IC50 at 96 h [1] [µM] | IC50 at 96 h [2] [µM] | IC50 at 96 h [3] [µM] | in vitro inhibitory activity against human telomerase (human telomerase) | IC50 at 96 h [4] [µM]
0.1 | CSc1cccc(Nc2c3ccc(NC(=O)CCN4CCCC4)cc3nc3cc(NC(=O)CCN4CCCC4)ccc23)c1 [JC-ACI-5, N-{9-[3′-Methylsulfanyl-phenylamino]}-3,6-bis(3-Pyrrolidinopropionamido)acridine] | 2.8 | 0.6 | 3.2 | – | 1.3
0.1 | CN(C)c1cccc(Nc2c3ccc(NC(=O)CCN4CCCC4)cc3nc3cc(NC(=O)CCN4CCCC4)ccc23)c1 [JH-ACI-78, N-{9-[3′-(N,N-Dimethylamino)phenylamino]}-3,6-bis(3-pyrrolidinopropionamido)acridine] | 7.9 | 2 | 4 | – | 2
0.06 | Nc1ccc(Nc2c3ccc(NC(=O)CCN4CCCC4)cc3nc3cc(NC(=O)CCN4CCCC4)ccc23)cc1 [BR-ACO-20, N-[9-(4′-Aminophenylamino)]-3,6-bis(3-pyrrolidinopropionamido)acridine] | > 25 | > 25 | > 25 | potent in vitro inhibitory activity | –
0.06 | CN(C)CCCNc1c2ccc(NC(=O)CCN3CCCC3)cc2nc2cc(NC(=O)CCN3CCCC3)ccc12 [JH-ACI-65, N-{9-[3-(N,N-Dimethyl)aminopropylamino]}-3,6-bis(3-pyrrolidinopropionamido)acridine] | > 25 | 17 | 15.8 | – | > 25

Reference: patent US7300930B2, “Therapeutic acridone and acridine compounds” (Cancer Research Technology Limited, priority 2000, dated 2007)
